Assay results published in PubChem BioAssay AID1963983 (Molecular Pharmacology Branch, DTP, NCI, 2024).
Values belong to the compound of their own block, whether it stands above or below them.

Test system: 186277-243-T-J2-PDC multi-cell spheroid viability
Experiment: Anticancer human tumor 186277-243-T-J2-PDC patient-derived colon adenocarcinoma cell line growth inhibition [PI3K]
Settings: for viability, T/C: stronger effect = lower value
How it was run: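 Multi-cell spheroids combine tumor cells with HUVEC and human MSCs, treated with targeted agents alone or with inavolisib, alpelisib, duvelisib or copanlisib. Concentrations fall in half-log steps from at or near clinical Cmax, or from 10 microM where Cmax is unknown; viability read-out.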

[1] = curve of first compound, second compound 0.0316 µM
[2] = curve of first compound, second compound 0.1 µM
[3] = curve of first compound, second compound 0.316 µM
[4] = curve of first compound, second compound 1 µM
[5] = second compound 0.0316 µM, first compound 0.0316 µM
[6] = second compound 0.0316 µM, first compound 0.1 µM
[7] = second compound 0.0316 µM, first compound 0.316 µM
[8] = second compound 0.0316 µM, first compound 1 µM
[9] = second compound 0.0316 µM, first compound 3.16 µM
[10] = second compound 0.0316 µM, first compound 10 µM
[11] = second compound 0.1 µM, first compound 0.0316 µM
[12] = second compound 0.1 µM, first compound 0.1 µM
[13] = second compound 0.1 µM, first compound 0.316 µM
[14] = second compound 0.1 µM, first compound 1 µM
[15] = second compound 0.1 µM, first compound 3.16 µM
[16] = second compound 0.1 µM, first compound 10 µM
[17] = second compound 0.316 µM, first compound 0.0316 µM
[18] = second compound 0.316 µM, first compound 0.1 µM
[19] = second compound 0.316 µM, first compound 0.316 µM
[20] = second compound 0.316 µM, first compound 1 µM
[21] = second compound 0.316 µM, first compound 3.16 µM
[22] = second compound 0.316 µM, first compound 10 µM
[23] = second compound 1 µM, first compound 0.0316 µM
[24] = second compound 1 µM, first compound 0.1 µM
[25] = second compound 1 µM, first compound 0.316 µM
[26] = second compound 1 µM, first compound 1 µM
[27] = second compound 1 µM, first compound 3.16 µM
[28] = second compound 1 µM, first compound 10 µM
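Note: spheroids exposed to compounds for seven days before viability reading.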
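Throughout, for viability, T/C: 100% = DMSO vehicle control viability.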

IC50 (curve of first compound, second compound 0.00316 µM): 65.3 nM
IC50 (curve of first compound, second compound 0.01 µM): < 31.6 nM
IC50 [1]: < 31.6 nM
IC50 [2]: < 31.6 nM
IC50 [3]: < 31.6 nM
IC50 [4]: < 31.6 nM
SMILES: C#Cc1c(F)ccc2cc(O)cc(-c3ncc4c(N5CC6CCC(C5)N6)nc(OCC56CCCN5CC(F)C6)nc4c3F)c12 (stereo unspecified) + COc1c(OCCCN2CCOCC2)ccc2c3n(c(=NC(=O)c4cnc(N)nc4)nc12)CCN3
viability, T/C (second compound 0.00316 µM, first compound 0.0316 µM): 78.4%
viability, T/C (second compound 0.00316 µM, first compound 0.1 µM): 32.4%
viability, T/C (second compound 0.00316 µM, first compound 0.316 µM): 17.5%
viability, T/C (second compound 0.00316 µM, first compound 1 µM): 8.98%
viability, T/C (second compound 0.00316 µM, first compound 3.16 µM): 9.36%
viability, T/C (second compound 0.00316 µM, first compound 10 µM): 6.51%
viability, T/C (second compound 0.01 µM, first compound 0.0316 µM): 47.8%
viability, T/C (second compound 0.01 µM, first compound 0.1 µM): 20.9%
viability, T/C (second compound 0.01 µM, first compound 0.316 µM): 13.7%
viability, T/C (second compound 0.01 µM, first compound 1 µM): 10.1%
viability, T/C (second compound 0.01 µM, first compound 3.16 µM): 8.35%
viability, T/C (second compound 0.01 µM, first compound 10 µM): 5.59%
viability, T/C [5]: 16.9%
viability, T/C [6]: 7.55%
viability, T/C [7]: 10.6%
viability, T/C [8]: 3.62%
viability, T/C [9]: 3.8%
viability, T/C [10]: 4.03%
viability, T/C [11]: 5.72%
viability, T/C [12]: 4.46%
viability, T/C [13]: 3%
viability, T/C [14]: 3.2%
viability, T/C [15]: 1.5%
viability, T/C [16]: 0.18%
viability, T/C [17]: 3.44%
viability, T/C [18]: 0.58%
viability, T/C [19]: 0.7%
viability, T/C [20]: 0.32%
viability, T/C [21]: 0.85%
viability, T/C [22]: 0.1%
viability, T/C [23]: 0.56%
viability, T/C [24]: 0.38%
viability, T/C [25]: 0.53%
viability, T/C [26]: 0.17%
viability, T/C [27]: 0.22%
viability, T/C [28]: 0.16%

IC50 [1]: > 10000 nM
IC50 [2]: > 10000 nM
IC50 [3]: > 10000 nM
IC50 [4]: > 10000 nM
IC50 (curve of first compound, second compound 3.16 µM): > 10000 nM
IC50 (curve of first compound, second compound 10 µM): < 31.6 nM
SMILES: CNC(=O)c1ccc(N2C(=S)N(c3ccc(C#N)c(C(F)(F)F)c3)C(=O)C2(C)C)cc1F + Cc1nc(NC(=O)N2CCCC2C(N)=O)sc1-c1ccnc(C(C)(C)C(F)(F)F)c1
viability, T/C [5]: 83.5%
viability, T/C [6]: 90%
viability, T/C [7]: 102%
viability, T/C [8]: 91.9%
viability, T/C [9]: 103%
viability, T/C [10]: 109%
viability, T/C [11]: 106%
viability, T/C [12]: 92.5%
viability, T/C [13]: 109%
viability, T/C [14]: 100%
viability, T/C [15]: 114%
viability, T/C [16]: 95.4%
viability, T/C [17]: 97.1%
viability, T/C [18]: 95.5%
viability, T/C [19]: 92%
viability, T/C [20]: 115%
viability, T/C [21]: 102%
viability, T/C [22]: 86.1%
viability, T/C [23]: 106%
viability, T/C [24]: 96%
viability, T/C [25]: 111%
viability, T/C [26]: 105%
viability, T/C [27]: 103%
viability, T/C [28]: 86%
viability, T/C (second compound 3.16 µM, first compound 0.0316 µM): 62.7%
viability, T/C (second compound 3.16 µM, first compound 0.1 µM): 62.6%
viability, T/C (second compound 3.16 µM, first compound 0.316 µM): 66.4%
viability, T/C (second compound 3.16 µM, first compound 1 µM): 66.7%
viability, T/C (second compound 3.16 µM, first compound 3.16 µM): 70.1%
viability, T/C (second compound 3.16 µM, first compound 10 µM): 58.7%
viability, T/C (second compound 10 µM, first compound 0.0316 µM): 13.9%
viability, T/C (second compound 10 µM, first compound 0.1 µM): 17.7%
viability, T/C (second compound 10 µM, first compound 0.316 µM): 14.7%
viability, T/C (second compound 10 µM, first compound 1 µM): 14%
viability, T/C (second compound 10 µM, first compound 3.16 µM): 15.5%
viability, T/C (second compound 10 µM, first compound 10 µM): 13.8%

IC50 (curve of compound): 5.39 µM [middle of 4 runs]
SMILES: CCCS(=O)(=O)Nc1ccc(F)c(C(=O)c2c[nH]c3ncc(-c4ccc(Cl)cc4)cc23)c1F
viability, T/C (compound 0.0316 µM): 94.8% [middle of 4 runs]
viability, T/C (compound 0.1 µM): 89.2% [middle of 4 runs]
viability, T/C (compound 0.316 µM): 86.2% [middle of 4 runs]
viability, T/C (compound 1 µM): 86.7% [middle of 4 runs]
viability, T/C (compound 3.16 µM): 84.1% [middle of 4 runs]
viability, T/C (compound 10 µM): 6.39% [middle of 4 runs]
